Read-outs that look alike come from different tables or passages of the source.
[1] = compared with crystals of fluoxetine HCl

Structure (SMILES): CNCCC(Oc1ccc(C(F)(F)F)cc1)c1ccccc1.Cl.O=C(O)c1ccccc1 (stereo not drawn) [fluoxetine HCl:benzoic acid, fluoxetine HCl:benzoic acid (1:1)]
- dissolution rate (Example 1 cocrystal): relatively slow
- dissolution rate [1]: lower dissolution rate

Structure (SMILES): CNCCC(Oc1ccc(C(F)(F)F)cc1)c1ccccc1.Cl.O=C(O)CCC(=O)O (stereo not drawn) [fluoxetine HCl:succinic acid, fluoxetine HCl:succinic acid (2:1)]
- dissolution rate [1]: faster dissolution rate

— patent US8350085B2, “Cocrystallization” (New Form Pharmaceuticals Inc., priority 2003, dated 2013)
